Laboratory results from patent US20080207760A1, “Pharmaceutical Compositions For and Methods of Inhibiting Hcv” (priority 2005, published 2008).
Entries after “also recorded” stand apart in the source; their conditions may differ.

Key:
synthetic NS4A [1] = target: T1, synthetic NS4A (Hepatitis C virus genotype 1b, UniProt Q9WMX2); test: Competition assay with [3H] labeled azidoacylthiourea for NS4A binding; design: species or system HCV
T1 construct: The full length of NS4A (54 amino acids) is synthesized; made in house
Protocol: (§1) To determine whether acylthiourea compounds bind to NS4A, a photo-affinity labeling is carried out, in which an [^3H] labeled photo-reactive azidoacylthiourea, 1-(5-Azido-benzofuran-2-carbonyl)-3-(4-pentyloxy-3-trifluoromethyl-phenyl)-thiourea, is mixed with synthetic NS4A at various molar ratios. The mixture is incubated at 31° C. for one hour. Samples are then illuminated by a UV lamp (254 nm wavelength) at room temperature for 7 minutes. After denaturing with equal volume of Laemmli buffer containing 5% mercaptoethanol at 99° C. for 5 minutes, samples are separated on a 10-20% SDS-PAGE. After electrophoresis, the gel is fixed with 30% methanol—10% acetic acid overnight. Then the gel is treated with 3H enhancer solution (PerkinElmer) at room temperature for one hour, and subsequently with water for 30 minutes, and dried under vacuum.
To study the binding specificity of [^3H] labeled 1-(5-Azido-benzofuran-2-carbonyl)-3-(4-pentyloxy-3-trifluoromethyl-phenyl)-thiourea to synthetic NS4A, several structurally related compounds are used in the following competition assays. Non-labeled 1-(5-Azido-benzofuran-2-carbonyl)-3-(4-pentyloxy-3-trifluoromethyl-phenyl)-thiourea shares the same structure with [^3H] labeled 1-(5-Azido-benzofuran-2-carbonyl)-3-(4-pentyloxy-3-trifluoromethyl-phenyl)-thiourea. 1-(5-Azido-benzofuran-2-carbonyl)-3-(4-pentyloxy-3-trifluoromethyl-phenyl)-urea differs in structure from 1-(5-Azido-benzofuran-2-carbonyl)-3-(4-pentyloxy-3-trifluoromethyl-phenyl)-thiourea in that 1-(5-Azido-benzofuran-2-carbonyl)-3-(4-pentyloxy-3-trifluoromethyl-phenyl)-urea has a carbonyl group where 1-(5-Azido-benzofuran-2-carbonyl)-3-(4-pentyloxy-3-trifluoromethyl-phenyl)-thiourea has a thiocarbonyl group. […]

HCV replicon cells = test: HCV replicon assay (RNA dot blot or NPTII ELISA); format: cell-based
Protocol: Cells expressing the HCV replicon are seeded onto the internal wells of 96-well plates at a density of 7,000 cells per well. One day later, different dilutions of the test compounds are added to corresponding wells and the plates are incubated in a CO2 incubator for 72 hours. After treatment, the cells are lysed with 70 μl RLN buffer per well (50 mM Tris-HCl [pH8.0], 140 mM NaCl, 1.5 mM MgCl2, 0.5% Nonidet P-40, 1,000 units/mL RNAsin and 1 mM […]). The total lysate is transferred to a new U bottom 96-well plate and nuclei and cell debris are pelleted with a brief spin (300×g for 3 minutes). 50 μl of supernatant is removed from the well and loaded directly onto manifold wells equipped with Nylon membranes. HCV RNA is hybridized at 58° C. overnight using a labeled HCV RNA probe containing a negative strand sequence complement to the NS5B region. Hybridization buffer is composed of 50% formamide, 5×SSPE, 1% SDS, 5× Denhart's solution, and sheared denatured salmon sperm DNA. Following hybridization, the membrane is washed with washing buffer (0.1×SSC, 0.1% SDS) at room temperature for two hours, then at 65° C. for 30 minutes. The radioactivity in each well is counted on a Microbeta counter and EC50 is calculated based on cpm. Alternatively, HCV replicon cells are trypsinized for 5-10 minutes in a CO2 incubator. Then, cells are placed in a 15 mL tube, and are spun at 1000 rpm for 4 minutes and trypsin solution is removed. Cell pellets are washed once with PBS and spun 4 minutes at 1000 rpm.
Trypsinization and wash steps, supra, are conducted efficiently to minimize cell death. PBS is removed and cells are resuspended in 4 mL fresh PBS and cells are seeded at a dilution of 5000 cells per well to 96 well plates. Test compounds are diluted in 96 well U bottom plates with DMEM (high glucose) (BRL, Catalog #21063) supplemented with 10% FBS, L-glutamine, and non-essential amino acid. 100 uL of test compound is loaded into each well. […]
100 uL of development solution (TMB one-step substrate system) is added and plates are developed in the dark for 10 to 30 minutes. […] OD450 is measured. […]

synthetic NS4A [2] = target: T1, synthetic NS4A; test: Photo-affinity labeling; format: binding, HCV; conditions: [3H] labeled compound, UV 254 nm, SDS-PAGE
Protocol: Experiments are undertaken to investigate the affinity and binding specificity of acylthiourea compounds to NS4A. The full length of NS4A (54 amino acids) is synthesized, and characterized with mass spectral analysis and HPLC profiling. An NS4A sample is then dissolved in 100% dimethylsulphoxide (DMSO) at a concentration of 2 μg/μl and subjected to a 10-20% SDS-PAGE with a reducing reagent. A 6 kDa protein band, consistent with the size of NS4A, is detected in the gel following a Coomassie blue staining. The NS4A identity of this band is further confirmed by a Western blot with monoclonal anti-NS4A antibody.
as §1, with “Then the gel is treated with 3H enhancer solution (PerkinElmer) at room temperature for one hour, and subsequently with water for 30 minutes, and dried under vacuum.” left out

NS3 protease domain = NS3 protease domain (Hepatitis C virus genotype 1b, UniProt Q9WMX2); test: Photo-affinity labeling; format: binding, HCV; conditions: [3H] labeled compound; same molar ratio as NS4A (3.3 μM)
Protocol: as §1
(§2) One band corresponds to NS4A monomer, which is also detectable with Coomassie blue staining (FIG. 3). […] Without being bound by any particular theory, it is believed that this band may be composed largely of polymer form or aggregates of NS4A. At the same time, full-length NS3 and NS3 protease domain is included in this binding assay.

full-length NS3 = full-length NS3 (Hepatitis C virus genotype 1b, UniProt Q9WMX2); test: Photo-affinity labeling; format: binding, HCV; conditions: [3H] labeled compound; same molar ratio as NS4A (3.3 μM)
Protocol: as §1, §2

T1 sequence (Q9WMX2 1658-1711): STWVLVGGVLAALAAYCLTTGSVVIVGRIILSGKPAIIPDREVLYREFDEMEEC
Sequence of NS3 protease domain (Q9WMX2 1027-1208): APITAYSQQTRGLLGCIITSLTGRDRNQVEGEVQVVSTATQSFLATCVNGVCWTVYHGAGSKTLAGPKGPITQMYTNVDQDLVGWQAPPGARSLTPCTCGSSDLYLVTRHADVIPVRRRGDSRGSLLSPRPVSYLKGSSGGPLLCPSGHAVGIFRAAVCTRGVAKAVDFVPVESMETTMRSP
Sequence of full-length NS3 (Q9WMX2 1027-1657): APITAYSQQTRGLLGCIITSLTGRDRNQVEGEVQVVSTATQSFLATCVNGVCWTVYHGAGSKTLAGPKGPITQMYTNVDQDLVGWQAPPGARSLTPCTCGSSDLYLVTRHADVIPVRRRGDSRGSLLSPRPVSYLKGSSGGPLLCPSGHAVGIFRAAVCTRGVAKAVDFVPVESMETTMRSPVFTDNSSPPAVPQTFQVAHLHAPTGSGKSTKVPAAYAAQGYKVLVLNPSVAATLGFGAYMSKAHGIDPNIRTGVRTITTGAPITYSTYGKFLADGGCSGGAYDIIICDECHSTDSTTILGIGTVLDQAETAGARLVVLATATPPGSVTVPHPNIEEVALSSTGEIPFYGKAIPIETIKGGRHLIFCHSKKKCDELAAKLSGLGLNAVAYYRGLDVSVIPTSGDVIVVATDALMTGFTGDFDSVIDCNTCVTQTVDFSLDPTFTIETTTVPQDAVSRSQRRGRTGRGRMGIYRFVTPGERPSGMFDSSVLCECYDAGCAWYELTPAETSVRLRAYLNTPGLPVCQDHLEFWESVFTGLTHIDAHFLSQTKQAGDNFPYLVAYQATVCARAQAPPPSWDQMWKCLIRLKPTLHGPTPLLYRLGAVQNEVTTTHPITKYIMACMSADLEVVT

Structure (SMILES)	competition with [3H] labeled 1-(5-Azido-benzofuran-2-carbonyl)-3-(4-pentyloxy-3-trifluoromethyl-phenyl)-thiourea for NS4A binding (synthetic NS4A [1])	anti-HCV activity in replicon cells (HCV replicon cells)	binding to synthetic NS4A (synthetic NS4A [2])	binding to NS3 protease domain (NS3 protease domain)	binding to full-length NS3 (full-length NS3)
CCCCCOc1ccc(NC(=O)NC(=O)c2cc3cc(N=[N+]=[N-])ccc3o2)cc1C(F)(F)F [1-(5-Azido-benzofuran-2-carbonyl)-3-(4-pentyloxy-3-trifluoromethyl-phenyl)-urea]	does not compete; also recorded: appears to abolish this competition capacity	does not exhibit any anti-HCV activity in replicon cells	–	–	–
CCCCCOc1ccc(NC(=S)NC(=O)c2cccnc2)cc1C(F)(F)F [1-(4-Pentyloxy-3-trifluoromethyl-phenyl)-3-(pyridine-3-carbonyl)-thiourea]	effectively compete	exhibit anti-HCV activities in replicon cells	–	–	–
CCCCCOc1ccc(NC(=S)NC(=O)c2cc3ccccc3o2)cc1C(F)(F)F [1-(Benzofuran-2-carbonyl)-3-(4-pentyloxy-3-trifluoromethyl-phenyl)-thiourea]	effectively compete	exhibit anti-HCV activities in replicon cells	–	–	–
CCCCCOc1ccc(NC(=S)NC(=O)c2cc3cc(N=[N+]=[N-])ccc3o2)cc1C(F)(F)F [1-(5-Azido-benzofuran-2-carbonyl)-3-(4-pentyloxy-3-trifluoromethyl-phenyl)-thiourea]	–	–	binds to synthetic NS4A; also recorded: two radioactive bands are shown in the gel	only weak binding signals	only weak binding signals
